Results from patent publication US11993640B2, “Treating inflammatory lung disease” (United States Government as represented by the Department …, priority 2019, dated 2024).
pIC50: −log10 of the molar value. Read-outs that look alike come from different tables or passages of the source. Non-standard residues stand in square brackets, D forms with d. Residues, ends and D or L forms follow the SMILES beside them. *: point of attachment. Phenylacetyl(2,3,4,5,6-F5) = O=C(Cc1c(F)c(F)c(F)c(F)c1F)*; Phe(F5) = N[C@@H](Cc1c(F)c(F)c(F)c(F)c1F)C(=O)O; hArg = N=C(N)NCCCC[C@H](N)C(=O)O; 12Ado = NCCCCCCCCCCCC(=O)O; Nle = CCCC[C@H](N)C(=O)O; Orn = NCCC[C@H](N)C(=O)O; Abu = CC[C@H](N)C(=O)O; PhAc = O=C(Cc1ccccc1)*

Legend:
[1] = molecular target: T1, membrane GHRH-receptors on human anterior pituitary cells (Homo sapiens, UniProt Q02643); assay: Competitive receptor binding, displacement of 125I-[His1,Nle27]-hGH-RH(1-32)NH2 from human pituitary membranes
T1 construct: Human pituitary was purchased from the National Hormone and Peptide Program; tissue National Hormone and Peptide Program; host or cells: human pituitary membrane fractions
T1 sequence (Q02643 23-423): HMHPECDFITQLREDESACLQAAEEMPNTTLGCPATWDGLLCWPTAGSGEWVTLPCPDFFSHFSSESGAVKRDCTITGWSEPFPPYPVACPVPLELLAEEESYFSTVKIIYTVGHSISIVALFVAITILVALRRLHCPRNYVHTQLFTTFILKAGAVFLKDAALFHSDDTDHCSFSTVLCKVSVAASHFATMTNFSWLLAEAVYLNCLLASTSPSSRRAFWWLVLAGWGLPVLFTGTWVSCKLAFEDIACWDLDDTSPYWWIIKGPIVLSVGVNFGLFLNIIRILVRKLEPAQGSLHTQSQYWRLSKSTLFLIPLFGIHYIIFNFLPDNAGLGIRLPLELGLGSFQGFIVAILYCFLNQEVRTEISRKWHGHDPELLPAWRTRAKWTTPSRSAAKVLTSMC
Description: Receptor binding affinities in vitro. Preparation of human pituitary membrane fractions and receptor binding of analogs of GH-RH were performed (Halmos G, Rekasi Z, Szoke B, Schally A V. (1993) Receptor 3:87-97). Human pituitary was purchased from the National Hormone and Peptide Program. […] Relative affinities compared to hGH-RH(1-29)NH2 were calculated as the ratio of IC50 (dose causing 50% inhibition of specific binding to receptors) of the tested peptides to the IC50 of hGH-RH(1-29)NH2. The values were calculated from technical duplicate tubes.
Nineteen new AVR analogs of GHRH were tested in the receptor binding assay. Table 6 presents the IC50 values of GHRH antagonists to membrane GHRH-receptors binding on human anterior pituitary cells.

HCC827 cells = assay: In vitro cell viability, lung cancer HCC827; assay type: cell-based, human; conditions: 5 μM, 72 h; for Relative inhibitory potency, Lung HCC827: relative to MIA602 = 1, Table 3A
Procedure, shortened: (§1)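 Cells grown to ~60% confluence and serum-starved 24 h in 0.5% FBS, then exposed to antagonists at 5 μM (some at 2 μM) for 72 h in quintuplicate, with medium replaced every 48 h. Viability read by CellTiter 96 AQueous One (MTS). Values are inhibition relative to MIA602.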

CFPAC-1 cells = assay: In vitro cell viability, pancreatic cancer CFPAC-1; assay type: cell-based, human; conditions: 5 μM, 72 h; for Relative inhibitory potency, Pancreatic CFPAC-1: relative to MIA602 = 1, Table 3A
Procedure, shortened: as §1

PANC-1 cells = assay: In vitro cell viability, pancreatic cancer PANC-1; assay type: cell-based, human; conditions: 5 μM, 72 h; relative to MIA602 = 1; Table 3A
Description: (§2) The inhibitory effects of the various synthesized GHRH antagonists were tested in cell proliferation assays in various human cancer cell lines including stomach cancer (KATOIII, N87), colon cancer (HT-29), urothelial cancer (J82, RT4), pancreatic cancer (PANC-1, CFPAC-1), prostatic cancer (PC3), breast cancer (MX-1, HCC1806), ovarian cancer (SK-OV-3, OVCAR-3) and lung cancer (HCC827, H460).
(§3) Cell culture. Human cancer cell lines including pancreatic (PANC-1 and CFPAC-1), lung (HCC827 and H460), stomach (NCI-N87 and KATOIII), urothelial (J82, RT4), prostatic (PC3), breast (MX-1 and HCC 1806), colorectal (HT-29), and ovarian (SK-OV-3 and OVCAR-3) were obtained from the American Type Culture Collection (ATCC) and cultured at 37° C. in a humidified 95% air/5% CO2 atmosphere in the medium recommended by ATCC.
(§4) In vitro cell viability. Cell viability was analyzed as follows: cancer cells including pancreatic (PANC-1 and CFPAC-1), lung (HCC827 and H460), stomach (NCI-N87 and KATOIII), urothelial (J82, RT4), prostatic (PC3) and breast (MX-1 and HCC 1806), colorectal (HT-29) and ovarian (SK-OV-3 and OVCAR-3) were grown on 96 well plates to ˜60% confluence, the cells were starved for 24 h in culture medium containing 0.5% FBS. Cells were then treated with GHRH antagonists MIA602 AVR compounds at concentrations of 1, 2.5 or 5 μM, or vehicle (0.1% DMSO) in quintuplicates for 72 hours. The medium was replaced every 48 hours. Cell viability was measured using CellTiter 96 aqueous one solution kit (Promega). Inhibitory effects of tested AVR compounds in comparison to that of MIA602 are presented as inhibitory potency.
(§5) Inhibitory effects of selected AVR compounds in comparison to that of MIA602 are presented as inhibitory potency (e.g., percentage of inhibition). […] The cell lines tested including lung cancer HCC827 (FIG. 2A), pancreatic cancer CFPAC-1 (FIG. 2B), stomach cancer N87 (FIG. 2C), colon cancer HT-29 (FIG. 2D), breast cancers MX-1 and HCC1806 (FIGS. 2E, F). Based on the results of cell proliferation assay after cancer cells were treated with antagonist at concentration of 5 μM for 72H, the relative inhibitory potency of AVR antagonists in comparison to MIA-602 is summarized in Table 3 A and B. Over 60 AVR compounds were tested in 12 cancer cell lines.

KATOIII cells = assay: In vitro cell viability, stomach cancer KATOIII; assay type: cell-based, human; conditions: 5 μM, 72 h; relative to MIA602 = 1; Table 3A
Procedure, shortened: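 Cells grown to ~60% confluence, starved 24 h in 0.5% FBS medium, then exposed to antagonists at 1, 2.5 or 5 μM or 0.1% DMSO vehicle for 72 h, in quintuplicate with medium renewed every 48 h. Viability by CellTiter 96 AQueous One; reported as inhibitory potency relative to MIA602.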

NCI-N87 cells = assay: In vitro cell viability (CellTiter 96), stomach cancer N87; assay type: cell-based, human; conditions: 5 μM, 72 h; for Relative inhibitory potency, Stomach N87: relative to MIA602 = 1, Table 3A
Description: as §2, §3, §4, §5
Based on the results of cell proliferation assay after cancer cells were treated with antagonist at concentration of 5 µM for 72H, * at concentration of 2 µM for 72 H.

J82 cells = assay: In vitro cell viability, urothelial cancer J82; assay type: cell-based, human; conditions: 5 μM, 72 h; relative to MIA602 = 1; Table 3A
Description: as §2, §3, §4, §5

| Compound | pIC50 ([1]; human anterior pituitary membranes, mean of two to three determinations, read-out: IC50) | Relative inhibitory potency, Lung HCC827 (HCC827 cells) | Relative inhibitory potency, Pancreatic CFPAC-1 (CFPAC-1 cells) | Relative inhibitory potency, Pancreatic Panc-1 (PANC-1 cells) | Relative inhibitory potency, Stomach KATOIII (KATOIII cells) | Relative inhibitory potency, Stomach N87 (NCI-N87 cells) | Relative inhibitory potency, Urothelial J82 (J82 cells) | pIC50 [1] | In vitro relative inhibitory potency in comparison to MIA-602, HCC827 (HCC827 cells; Table 3B) | In vitro relative inhibitory potency in comparison to MIA-602, CFPAC-1 (CFPAC-1 cells; Table 3B) | In vitro relative inhibitory potency in comparison to MIA-602, NCI-N87 (NCI-N87 cells; Table 3B) |
| --- | --- | --- | --- | --- | --- | --- | --- | --- | --- | --- | --- |
| CCCC[C@H](NC(=O)[C@@H](NC(=O)[C@H](CC(=O)O)NC(=O)[C@H](CCC(N)=O)NC(=O)[C@H](CC(C)C)NC(=O)[C@H](CC(C)C)NC(=O)[C@H](CCCCN)NC(=O)[C@H](CCCNC(=N)N)NC(=O)[C@H](C)NC(=O)[C@H](CO)NC(=O)[C@H](CC(C)C)NC(=O)[C@H](CCC(N)=O)NC(=O)[C@H](CC)NC(=O)[C@H](CC(C)C)NC(=O)[C@@H](NC(=O)[C@H](CCCCN)NC(=O)[C@H](CCCNC(=N)N)NC(=O)[C@H](Cc1ccc(OC)cc1)NC(=O)[C@H](CCCCNC(=N)N)NC(=O)[C@H](C)NC(=O)[C@@H](NC(=O)[C@H](Cc1c(F)c(F)c(F)c(F)c1F)NC(=O)[C@@H](NC(=O)[C@H](C)NC(=O)[C@H](CC(=O)O)NC(=O)[C@@H](CCCNC(=N)N)NC(=O)[C@H](Cc1ccc(O)cc1)NC(=O)CCCCCCCCCCCNC(=O)Cc1c(F)c(F)c(F)c(F)c1F)[C@@H](C)CC)[C@@H](C)O)C(C)C)[C@@H](C)CC)C(=O)N[C@H](CCCNC(=N)N)C(=O)N[C@@H](CCCCNC(=N)N)C(=O)NC [AVR-235] ({Phenylacetyl(2,3,4,5,6-F5)-12Ado}-Y[dR]DAI[Phe(F5)]TA[hArg]Y(Me)RKVL[Abu]QLSARKLLQDI[Nle][dR][hArg]-NHMe) | 9.31 | 1.506 | 1.399 | 1.139 | 1.220 | 2.911 | 1.518 |  |  |  |  |
| CCCC[C@H](NC(=O)[C@@H](NC(=O)[C@H](CC(=O)O)NC(=O)[C@H](CCC(N)=O)NC(=O)[C@H](CC(C)C)NC(=O)[C@H](CC(C)C)NC(=O)[C@H](CCCN)NC(=O)[C@H](Cc1c[nH]cn1)NC(=O)[C@H](C)NC(=O)[C@H](CO)NC(=O)[C@H](CC(C)C)NC(=O)[C@H](CCC(N)=O)NC(=O)[C@H](CC)NC(=O)[C@H](CC(C)C)NC(=O)[C@@H](NC(=O)[C@H](CCCN)NC(=O)[C@H](Cc1c[nH]cn1)NC(=O)[C@H](Cc1ccc(OC)cc1)NC(=O)[C@H](CCCCNC(=N)N)NC(=O)[C@H](C)NC(=O)[C@@H](NC(=O)[C@H](Cc1c(F)c(F)c(F)c(F)c1F)NC(=O)[C@@H](NC(=O)[C@H](C)NC(=O)[C@H](CC(=O)O)NC(=O)[C@@H](CCCNC(=N)N)NC(=O)[C@H](Cc1ccc(O)cc1)NC(=O)CCCCCCCCCCCNC(=O)Cc1ccccc1)[C@@H](C)CC)[C@@H](C)O)C(C)C)[C@@H](C)CC)C(=O)N[C@H](CCCNC(=N)N)C(=O)N[C@@H](CCCCNC(=N)N)C(N)=O [MIA-602, PhAC-Ada, Tyr D-Arg, Asp, Ala, Ile, 5FPhe, Thr, Ala, Har, Tyr(Me), His, Orn, Val, Leu, Abu, Gin, Leu, Ser, Ala, His, Orn, Leu, Leu, Gin, Asp, Ile, Nle, D-Arg, Har NH2, reference compound] ({PhAc-12Ado}-Y[dR]DAI[Phe(F5)]TA[hArg]Y(Me)H[Orn]VL[Abu]QLSAH[Orn]LLQDI[Nle][dR][hArg]-NH2) |  | 1 | 1 | 1 | 1 | 1 | 1 | 9.57 | 1 | 1 | 1 |
